Literature values as cited in patent US20220387443A1, “RESPIRATORY SYNCYTIAL VIRUS FUSION PROTEIN INHIBITOR COMPOSITIONS AND METHODS FOR THE TREATMENT AND PROPHYLAXIS OF RSV DISEASES USING THE SAME” (priority 2019, published 2022).

How the values were obtained:
RSV infection = details: selected infants, intramuscularly 15 mg/kg once a month for the duration of RSV season
RSV = details: human RSV viral challenge studies

| Compound | reduction of hospitalization rate caused by RSV infection (RSV infection) | reduction of viral load (RSV) [log 10] |
| --- | --- | --- |
| palivizumab: humanized monoclonal antibody against RSV fusion (F) protein | 45-55% |  |
| Cc1cn2nc([C@@H]3CCCCN3C(=O)c3cc(Cl)ccc3NS(C)(=O)=O)cc2nc1N1CC[C@H](N)C1 [GS-5806] |  | 4.2 |
